# Data reported in patent US10017463B2, “Inhibitors of deubiquitinating proteases” (Brandeis University, priority 2014, dated 2018).
# Where two headings read alike, the source gives them in different places.
# Tests used:
# cathepsin C = target: T1, cathepsin C (Mus musculus, UniProt P97821); assay: Cathepsin C inhibition (Gly-Phe-AMC); format: biochemical; details: for EC50 for cathepsin C inhibition: 30 min preincubation, substrate 150 μM
# T1 construct: Mouse full length cathepsin C was from RnD systems; purchased RnD systems (Minneapolis, Minn.)
# T1 sequence (P97821 231-393 limits assumed): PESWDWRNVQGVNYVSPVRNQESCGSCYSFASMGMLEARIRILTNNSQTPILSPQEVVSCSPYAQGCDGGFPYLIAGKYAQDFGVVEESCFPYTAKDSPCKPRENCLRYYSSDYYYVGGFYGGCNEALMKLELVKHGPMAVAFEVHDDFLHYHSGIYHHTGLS
# T1 sequence (P97821 25-134 limits assumed): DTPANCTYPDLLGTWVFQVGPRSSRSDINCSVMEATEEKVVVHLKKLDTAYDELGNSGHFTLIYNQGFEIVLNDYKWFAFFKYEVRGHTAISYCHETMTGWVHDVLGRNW
# T1 sequence (P97821 394-462 limits assumed): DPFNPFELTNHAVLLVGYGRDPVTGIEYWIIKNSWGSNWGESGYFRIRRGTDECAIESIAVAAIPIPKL
# Experimental: Panel A is a plot showing the KM calculation for cathepsin C and substrate, Gly-Phe-AMC. Panel B is a plot showing Cathepsin C was incubated with the stated compound for 30 min prior to addition of substrate and residual activity was measured. Panel C is a plot showing the EC50 values calculated from Panel B.
# Cathepsin C is an enzyme important in inflammation. […] The assay was undertaken by incubating the enzyme in the presence of compound for 30 min, then adding substrate (150 μM; kM=75 μM) and measuring residual activity. […] TCM41, TCM42, TCM58, TCM43, and TCM97 (FIG. 12). […] Furthermore, substitution in the 3-position of the aniline function appeared to be more favored than 4-substitution (TCM97 vs TCM41). However substitution on the phenyl ester function was much less important for inhibition, with chloro, fluoro and proton all giving similar inhibition potencies.
# USP9x = target: T2, USP9x (Homo sapiens, UniProt Q93008); assay: HA-Ubiquitin-Vinylsulfone activity profiling in K562 lysates; format: biochemical
# T2 construct: Lysate labeling assay on untransfected cells; endogenous in cells; host or cells: K562
# T2 sequence (Q93008 whole entry): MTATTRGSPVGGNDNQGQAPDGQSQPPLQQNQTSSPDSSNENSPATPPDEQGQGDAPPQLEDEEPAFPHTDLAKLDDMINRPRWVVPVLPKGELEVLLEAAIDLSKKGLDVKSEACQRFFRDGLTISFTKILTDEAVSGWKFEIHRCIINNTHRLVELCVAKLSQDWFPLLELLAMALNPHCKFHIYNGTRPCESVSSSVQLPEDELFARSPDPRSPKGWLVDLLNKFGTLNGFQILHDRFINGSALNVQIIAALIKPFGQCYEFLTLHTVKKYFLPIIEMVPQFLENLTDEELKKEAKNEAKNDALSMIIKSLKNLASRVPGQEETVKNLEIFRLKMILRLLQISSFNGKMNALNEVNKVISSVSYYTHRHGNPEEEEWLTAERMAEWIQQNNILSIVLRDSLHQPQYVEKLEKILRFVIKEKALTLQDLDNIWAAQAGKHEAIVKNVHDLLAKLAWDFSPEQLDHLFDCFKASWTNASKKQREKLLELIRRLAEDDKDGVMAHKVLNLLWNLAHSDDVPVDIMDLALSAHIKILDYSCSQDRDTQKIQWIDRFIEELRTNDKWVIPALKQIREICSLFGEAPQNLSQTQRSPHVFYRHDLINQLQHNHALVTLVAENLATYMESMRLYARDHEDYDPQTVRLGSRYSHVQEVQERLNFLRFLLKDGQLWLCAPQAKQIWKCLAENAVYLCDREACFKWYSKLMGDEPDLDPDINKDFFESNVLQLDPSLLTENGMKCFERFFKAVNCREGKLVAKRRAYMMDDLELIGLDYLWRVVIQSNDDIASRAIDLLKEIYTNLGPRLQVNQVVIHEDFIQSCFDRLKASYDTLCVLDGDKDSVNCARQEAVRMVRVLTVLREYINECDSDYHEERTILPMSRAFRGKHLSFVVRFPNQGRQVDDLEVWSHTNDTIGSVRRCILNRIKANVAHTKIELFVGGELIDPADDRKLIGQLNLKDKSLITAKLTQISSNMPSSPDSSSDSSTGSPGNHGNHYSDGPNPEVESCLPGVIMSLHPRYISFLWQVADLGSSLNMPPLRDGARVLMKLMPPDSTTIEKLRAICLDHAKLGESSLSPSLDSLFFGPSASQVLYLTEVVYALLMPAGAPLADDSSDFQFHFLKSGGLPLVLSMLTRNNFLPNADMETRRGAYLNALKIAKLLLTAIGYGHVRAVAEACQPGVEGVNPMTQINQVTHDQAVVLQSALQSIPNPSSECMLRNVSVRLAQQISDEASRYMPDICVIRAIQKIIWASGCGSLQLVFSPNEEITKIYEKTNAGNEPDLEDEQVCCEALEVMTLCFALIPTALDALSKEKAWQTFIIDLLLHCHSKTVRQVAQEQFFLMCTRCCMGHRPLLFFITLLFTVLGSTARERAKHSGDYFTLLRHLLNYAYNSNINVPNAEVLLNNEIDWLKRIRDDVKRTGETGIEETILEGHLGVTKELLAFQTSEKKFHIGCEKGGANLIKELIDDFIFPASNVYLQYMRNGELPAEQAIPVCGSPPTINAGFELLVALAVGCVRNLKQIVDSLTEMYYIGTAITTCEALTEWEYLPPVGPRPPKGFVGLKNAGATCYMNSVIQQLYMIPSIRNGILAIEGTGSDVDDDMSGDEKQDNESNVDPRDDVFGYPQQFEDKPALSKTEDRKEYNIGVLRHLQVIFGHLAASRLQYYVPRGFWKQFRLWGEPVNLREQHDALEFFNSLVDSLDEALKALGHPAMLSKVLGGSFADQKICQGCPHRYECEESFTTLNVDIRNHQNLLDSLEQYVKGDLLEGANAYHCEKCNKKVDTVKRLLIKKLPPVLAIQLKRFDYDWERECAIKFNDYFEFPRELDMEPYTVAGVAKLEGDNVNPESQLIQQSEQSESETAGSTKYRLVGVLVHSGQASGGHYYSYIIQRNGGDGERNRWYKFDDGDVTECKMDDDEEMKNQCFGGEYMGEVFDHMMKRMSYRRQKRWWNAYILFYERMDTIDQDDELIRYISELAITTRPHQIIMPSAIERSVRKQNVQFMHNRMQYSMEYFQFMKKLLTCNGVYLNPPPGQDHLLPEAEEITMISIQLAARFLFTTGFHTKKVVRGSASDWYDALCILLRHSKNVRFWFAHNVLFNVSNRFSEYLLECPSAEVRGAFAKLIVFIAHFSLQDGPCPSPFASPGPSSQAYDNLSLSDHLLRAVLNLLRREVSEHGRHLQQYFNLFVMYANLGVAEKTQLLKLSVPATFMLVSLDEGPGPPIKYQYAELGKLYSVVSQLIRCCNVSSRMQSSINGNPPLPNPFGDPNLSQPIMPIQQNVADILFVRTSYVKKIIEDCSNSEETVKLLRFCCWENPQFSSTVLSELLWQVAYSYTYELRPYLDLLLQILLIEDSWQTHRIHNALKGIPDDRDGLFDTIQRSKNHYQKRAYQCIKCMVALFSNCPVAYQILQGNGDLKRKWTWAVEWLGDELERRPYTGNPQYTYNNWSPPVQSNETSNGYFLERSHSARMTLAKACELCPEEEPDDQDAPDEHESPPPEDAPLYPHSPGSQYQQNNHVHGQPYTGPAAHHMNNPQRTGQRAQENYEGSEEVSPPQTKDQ
# Experimental: Panel B is an image of an immunoblot showing the titration of TCM23 and TCM28 in K562 lysates. Panel C is a plot showing the quantitation of band corresponding to USP9x in panel B. Panel D is an image of an immunoblot showing the titration of WP1130 in K562 lysates. Panel E is a plot showing the quantification of the efficacy of ITCs for the inhibition of USP9x in K562 lysates (see also Table 2).
# […] After this time HA-Ub-VS (1.5 μM) was added and incubated for 15 min. After this time reaction mixture (15 μL) was removed and quenched in 2× (final concentration) reducing Laemeli buffer. The reaction mixtures were heated to 37° C. for 10 min prior to analysis by western blot for HA.
# G76VUb-GFP in COS1 cells = assay: UbG76V-GFP proteasome assay in COS1 cells; format: cell-based; details: COS1, 8 h
# Experimental: COS1 cells at approx. 75% confluence in a 48 well plate were transiently transfected with a plasmid encoding G76VUb-GFP using Mirus 2020 reagent. After this time media with either compound in DMSO or 1% DMSO was added to the cells and the cells were incubated for 8 h. After this time, cells were trypsinized, diluted with 1% FBS in PBS (FACS buffer) then centrifuged at 700 g. After this time cells on ice were treated with FACS buffer containing propidium iodide (0.05 mg/mL). The GFP (indicating proteasome activity) and red fluorescence (dye exclusion showing acute toxicity) were subsequently measured by FACS.
# HeLa = assay: Proliferation assay, HeLa; details: read-out: EC50 HeLa
# Experimental: (§2) Proliferation assays for adherent cells were conducted by plating cells at 5%-10% confluence in 96 well plates together with compound or 0.1% DMSO. Cells were allowed to grow for 48 h and then Alamar Blue® was added and number of cells was measured by fluorescence on a microplate reader.
# [1] = tested on: DUBs other than USP9x, most notably UCHL5; assay: HA-Ubiquitin-Vinylsulfone activity profiling, other DUBs; format: biochemical
# Experimental: Lysate labeling assay on untransfected cells (1.5 mg/mL lysate lysed using a Dounce homogenizer, 10 strokes, in 75 mM potassium phosphate pH 7.6, 150 mM NaCl, 0.75 mM BME) was run with the stated concentration of inhibitor (or 1% DMSO control) for 30 min. After this time HA-Ub-VS (1.5 μM) was added and incubated for 15 min. After this time reaction mixture (15 μL) was removed and quenched in 2× (final concentration) reducing Laemeli buffer. The reaction mixtures were heated to 37° C. for 10 min prior to analysis by western blot for HA. […] EC50s calculated by this method were in agreement with those found in the HA-blot.
# B16-F10 = assay: Proliferation assay, B16-F10; details: read-out: EC50 B16-F10; WP1130, time not stated
# MCF7 = assay: Proliferation assay, MCF7; details: read-out: EC50 MCF7
# Experimental: as §2
# 3T3 = assay: Proliferation assay, 3T3; details: read-out: EC50 3T3; WP1130, time not stated
# BaF3/p210 cells [2] = assay: Proliferation assay (Alamar Blue), BaF3/p210; format: cell-based, murine
# Text: This cell line consists of engineered murine leukemia cells that ectopically express Bcr-Abl. Parent BaF3 cells require exogenous interleukin 3 (IL3) because IL3 stimulates expression of MCL1, which is required for survival. However, BaF3/p210 cells require no exogenous interleukins but need Bcr-Abl for survival.
# BaF3/p210 cells [3] = assay: Apoptosis (cPARP) in BaF3/p210 cells; format: cell-based, murine; details: 4 h
# Experimental: (§1) Panel A is the chemical structure of TU71. Panel B is an image of an immunoblot showing a K562 cell was treated with TU71 for 15 min at which time HAUb-VS was added. After an additional 15 min, aliquots were quenched in reducing loading buffer and analyzed by SDS-PAGE and HA blot. […] BaF3/p21 0 cells were treated with TU71 for 2.5 h (Panel C) or 4 h (Panel D). Cells were harvested, lysed and incubated (0.7 mg/mL protein) with 250 nM Cy5-UbVME for 5 min at 37° C. […] Panel E is an image of an immunoblot showing BaF3/p210 cells were incubated with TU71 for 4 h. The cells were harvested, lysed, analyzed by SDS-PAGE and immunoblotted as indicated. “cPARP” indicates the caspase cleavage of product of PARP and is indicative of apoptosis. Panel F is a bar graph showing data representative of mean±range of two independent experiments, one performed in duplicate of the blot depicted in Panel E.
# MCL-1 = MCL-1 immunoblot in BaF3/p210 cells; format: cell-based, murine; details: 4 h
# Experimental: as §1
# DUBs = assay: Cy5-Ub-VME activity profiling of treated BaF3/p210 cells; format: cell-based, murine; details: TU71 for 2.5 h or 4 h
# Experimental: FIG. 9 has two panels (A and B) depicting data showing that TUs inhibit DUBs in cells. BaF3/p210 cells were incubated with the stated concentration of compound for 4 h. After this time cells were lysed using beads, lysates were normalized, then exposed to Cy5-Ub-VME for 5 min. After quenching, lysates were resolved by SDS-PAGE, analyzed on typhoon, then stained by Coomassie. Panel A is an image of the SDS-PAGE gel visualized via Typhoon imager. Panel B is an image of the SDS PAGE gel stained with Coomassie.
# as §1
# The increased promiscuity of the inhibitors when the experiment is carried out in cells likely stems from the increased assay time (4 h vs 20 min) coupled with the slow on rates of the inhibitors and their targets.
# [4] = inhibition of USP9x in K562 lysates, data from FIG. 1, read-out: EC50
# [5] = HA-Ub-VS profiling, values in text, read-out: EC50 for USP9x
smiles,measurement,setting,value
Cc1ccc(OC(=S)N(C(=S)Oc2ccc(C)cc2)c2ccc(CNC(=O)OC(C)(C)C)cc2)cc1 [TCM42],EC50 for cathepsin C inhibition,cathepsin C,low micromolar range
CC(C)(C)OC(=O)NCc1ccc(N(C(=S)Oc2ccc(F)cc2)C(=S)Oc2ccc(F)cc2)cc1 [TCM58],EC50 for cathepsin C inhibition,cathepsin C,low micromolar range
Fc1cccc(N=C=S)c1 [TU81],EC50,USP9x; [4],20 µM
CC(C)(C)OC(=O)NCc1ccc(N(C(=S)Oc2ccc(Cl)cc2)C(=S)Oc2ccc(Cl)cc2)cc1 [TCM40],EC50 for cathepsin C inhibition,cathepsin C,low micromolar range
"CC(C)C[C@H](NC(=O)[C@H](Cc1ccccc1)NC(=O)c1cnccn1)B(O)O [Bortezomib, reference compound]",GFP signal,G76VUb-GFP in COS1 cells,two-fold increase in GFP signal
Cc1cccc(N=C=S)c1 [TU70],EC50,USP9x; [5],> 50 µM
same,EC50,USP9x; [4],61 µM
O=[N+]([O-])c1ccc(N=C=S)cc1 [TU79],EC50,USP9x; [4],11 µM
N#Cc1cc(F)cc(N=C=S)c1 [TU74],EC50,USP9x; [4],22 µM
"CCC[C@H](NC(=O)/C(C#N)=C/c1cccc(Br)n1)c1ccccc1 [WP1130, reference compound]",EC50,HeLa,3 µM
same,inhibition of other USPs,[1]; conditions as for USP9x EC50,also inhibited
same,EC50,USP9x; [5],3 µM
same,EC50,B16-F10,3 µM
same,EC50,MCF7,3 µM
same,EC50,3T3,3 µM
S=C=Nc1ccccc1 [TU76],EC50,USP9x; [5],> 50 µM
same,EC50,USP9x; [4],131 µM
CN(C)c1ccc(N(C(=S)Oc2ccccc2)C(=S)Oc2ccccc2)cc1 [TCM43],relative potency as cathepsin C inhibitor,cathepsin C,most potent inhibitor
same,EC50 for cathepsin C inhibition,cathepsin C,low micromolar range
CC(C)(C)OC(=O)NCCc1cccc(N=C=S)c1 [TU71],growth inhibition of BaF3/p210 cells,BaF3/p210 cells [2],did not show a significant growth inhibition until very high concentrations
same,inhibition of other DUBs other than USP9x,[1]; at 85 μM,weak inhibition
same,inhibition of other DUBs,[1]; below 25 μM,little inhibition
same,apoptosis,BaF3/p210 cells [3],initiates apoptosis
same,EC50,USP9x; [5],6 to 12 µM
same,EC50,"USP9x; K562 treated with TU71 for 15 min, then HAUb-VS 15 min (FIG. 13), read-out: EC50 for USP9x inhibition",20 ± 1 µM
same,EC50,USP9x; [4],9 µM
same,level of MCL-1,MCL-1,decreases the level
same,DUB inhibition in cells,DUBs,inhibits DUBs
CC(C)(C)OC(=O)NCc1cccc(N(C(=S)Oc2ccccc2)C(=S)Oc2ccccc2)c1 [TCM97],EC50 for cathepsin C inhibition,cathepsin C,low micromolar range
CC(C)(C)OC(=O)NCc1ccc(N(C(=S)Oc2ccccc2)C(=S)Oc2ccccc2)cc1 [TCM41],EC50 for cathepsin C inhibition,cathepsin C,low micromolar range
